Experimental findings from ChEMBL document CHEMBL1201862, “PubChem BioAssay data set” (2004) are described below.

Assay [1] deals with T1, Methionyl-tRNA synthetase, putative (Trypanosoma brucei brucei, UniProt Q38C91).
T1 sequence (Q38C91 whole entry): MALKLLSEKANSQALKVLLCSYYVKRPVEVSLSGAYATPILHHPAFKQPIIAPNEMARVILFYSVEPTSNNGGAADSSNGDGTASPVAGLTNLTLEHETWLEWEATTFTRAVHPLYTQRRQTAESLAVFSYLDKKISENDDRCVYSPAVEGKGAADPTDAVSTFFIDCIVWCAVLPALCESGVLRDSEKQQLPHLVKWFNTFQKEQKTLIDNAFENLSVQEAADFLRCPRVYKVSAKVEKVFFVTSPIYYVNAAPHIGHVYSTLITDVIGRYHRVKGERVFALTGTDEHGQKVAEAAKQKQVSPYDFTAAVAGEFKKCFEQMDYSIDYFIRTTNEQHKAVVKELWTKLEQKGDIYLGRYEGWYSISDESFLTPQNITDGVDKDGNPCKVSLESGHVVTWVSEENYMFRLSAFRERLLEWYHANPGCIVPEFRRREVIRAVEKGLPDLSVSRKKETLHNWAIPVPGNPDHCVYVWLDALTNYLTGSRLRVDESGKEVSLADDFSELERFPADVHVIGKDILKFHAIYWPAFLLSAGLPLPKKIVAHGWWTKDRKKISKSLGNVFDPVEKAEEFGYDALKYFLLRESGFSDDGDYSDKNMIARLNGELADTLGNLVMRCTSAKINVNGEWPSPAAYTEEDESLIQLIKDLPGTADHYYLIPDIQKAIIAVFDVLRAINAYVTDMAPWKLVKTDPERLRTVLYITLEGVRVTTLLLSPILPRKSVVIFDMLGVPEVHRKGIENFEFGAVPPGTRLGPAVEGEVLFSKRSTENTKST
Format: functional, Trypanosoma brucei brucei strain 927/4 GUTat10.1.

A short description of assay [2]: Counterscreen for inhibitors of Trypanosoma brucei methionyl tRNA synthetase (MetRS): Luminescence-based cell-based high throughput dose response assay to identify compounds that are cytotoxic to Jurkat human T lymphocyte cells. The class given is functional. A general note: A counterscreen serves to expose hits that act by an unwanted route or on another target.

Assay [3] addresses T1, Methionyl-tRNA synthetase, putative. The class given is functional, Trypanosoma brucei brucei strain 927/4 GUTat10.1. The source holds these as a separate data set.
Assay [4] concerns the target Fructose-bisphosphate aldolase (Mycobacterium tuberculosis, UniProt P9WQA3). Nature of the assay: Fluorescence-based biochemical high throughput dose response assay for inhibitors of the fructose-bisphosphate aldolase (FBA) of M. tuberculosis. The class given is functional.
Assay [5] concerns the target T2, Beta-lactamase (Pseudomonas aeruginosa, UniProt Q79MP6). Description: […] counterscreen for selective VIM-2 inhibitors: dose response biochemical high throughput screening assay to identify inhibitors of IMP-1 metallo-beta-lactamase.
For assay [6], the target named is Beta-lactamase (Salmonella choleraesuis (strain SC-B67), UniProt Q5J463). Description: Epi-absorbance-based counterscreen for selective VIM-2 inhibitors: dose response biochemical high throughput screening assay to identify inhibitors of TEM-1 serine-beta-lactamase.
Sequence of Beta-lactamase (Salmonella choleraesuis (strain SC-B67), UniProt Q5J463) (Q5J463 whole entry): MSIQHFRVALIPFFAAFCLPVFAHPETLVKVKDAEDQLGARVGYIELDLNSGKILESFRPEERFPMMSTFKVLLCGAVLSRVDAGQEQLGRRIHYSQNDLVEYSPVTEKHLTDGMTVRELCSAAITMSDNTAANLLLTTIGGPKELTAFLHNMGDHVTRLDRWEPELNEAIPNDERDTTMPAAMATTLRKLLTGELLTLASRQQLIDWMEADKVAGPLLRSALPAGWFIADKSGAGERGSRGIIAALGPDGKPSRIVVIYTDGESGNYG
Assay [7] has as its target T2, Beta-lactamase. Nature of the assay: inhibition of IMP-1 beta-lactamase activity – biochemical, epi-absorbance, selectivity assay for VIM-2 inhibitor project, dose response (AID 1920).
The target in assay [8] is G-protein coupled receptor 55 (Homo sapiens, UniProt Q9Y2T6). Nature of the assay: inhibition of LPI-stimulated GPR55 beta-arrestin translocation – imaging, U2OS, beta-arrestin-GFP, LPI agonist, primary screen (AID 2013).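 Further: antagonist potency measured as reduced agonist-driven arrestin aggregation.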 The class given is functional.
Sequence of G-protein coupled receptor 55 (Q9Y2T6 whole entry): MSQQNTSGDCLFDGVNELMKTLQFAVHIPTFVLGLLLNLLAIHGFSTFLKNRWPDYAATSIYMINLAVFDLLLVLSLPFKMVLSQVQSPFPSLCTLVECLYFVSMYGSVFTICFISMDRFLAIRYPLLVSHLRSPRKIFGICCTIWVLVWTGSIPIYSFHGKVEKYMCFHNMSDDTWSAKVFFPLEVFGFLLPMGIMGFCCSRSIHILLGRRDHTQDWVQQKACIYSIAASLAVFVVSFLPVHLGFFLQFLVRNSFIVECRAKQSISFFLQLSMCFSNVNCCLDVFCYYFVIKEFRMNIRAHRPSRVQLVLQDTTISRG
For assay [9], the target named is T3, Rac GTPase-activating protein 1 (Homo sapiens, UniProt Q9H0H5).
T3 sequence (Q9H0H5 whole entry): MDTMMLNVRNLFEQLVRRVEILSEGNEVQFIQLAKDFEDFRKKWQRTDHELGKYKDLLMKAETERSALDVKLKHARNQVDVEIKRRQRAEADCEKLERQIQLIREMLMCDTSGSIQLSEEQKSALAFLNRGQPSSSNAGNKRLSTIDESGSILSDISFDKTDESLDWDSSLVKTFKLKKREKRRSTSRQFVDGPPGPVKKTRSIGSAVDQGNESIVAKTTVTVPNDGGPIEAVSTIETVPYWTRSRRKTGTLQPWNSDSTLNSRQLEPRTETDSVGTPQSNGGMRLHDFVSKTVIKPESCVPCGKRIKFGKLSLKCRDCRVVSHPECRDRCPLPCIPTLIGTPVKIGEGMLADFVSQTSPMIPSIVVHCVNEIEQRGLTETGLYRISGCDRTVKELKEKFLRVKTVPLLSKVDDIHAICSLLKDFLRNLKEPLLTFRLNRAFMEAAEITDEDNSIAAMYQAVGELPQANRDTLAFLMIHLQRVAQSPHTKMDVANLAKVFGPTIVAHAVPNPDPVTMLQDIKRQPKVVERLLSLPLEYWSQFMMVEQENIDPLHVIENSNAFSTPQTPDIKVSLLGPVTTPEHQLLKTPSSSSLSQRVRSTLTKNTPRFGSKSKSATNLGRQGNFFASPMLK
Nature of the assay: blockers of MgcRacGAP-driven Rac1 GTP hydrolysis – biochemical, ADP Hunter fluorescence, primary and confirmatory, confirmation (AID 624330). Format: functional.

The nature of assay [10]: viability loss in HeLa cells – cytotoxicity control for MgcRacGAP inhibitor project, dose response (AID 624300). Format: functional.
The next assay concerns A549. Description: viability loss in A549 cells – cell-based, plate reader, cherry-pick samples, cytotoxicity control, dose response (AID 687028). Format: functional. Conditions: Homo sapiens.
The next assay addresses Melanocortin receptor 4 (Homo sapiens, UniProt P32245). Format: functional, cell-based.
Assay [11] can be described thus: Luminescence Cell-Based Dose Confirmation HTS to Identify Inhibitors of Platelet Dense Granule Release. [Related pubchem assays: 1663 (Primary HTS), 1678 (Summary of Project)]. Format: functional.
In assay [12] the target is Luciferin 4-monooxygenase (Photinus pyralis, UniProt P08659). Nature of the assay: inhibition of purified Photinus pyralis luciferase – biochemical, luminescence, dose response (AID 1891).
Sequence of Luciferin 4-monooxygenase (P08659 whole entry): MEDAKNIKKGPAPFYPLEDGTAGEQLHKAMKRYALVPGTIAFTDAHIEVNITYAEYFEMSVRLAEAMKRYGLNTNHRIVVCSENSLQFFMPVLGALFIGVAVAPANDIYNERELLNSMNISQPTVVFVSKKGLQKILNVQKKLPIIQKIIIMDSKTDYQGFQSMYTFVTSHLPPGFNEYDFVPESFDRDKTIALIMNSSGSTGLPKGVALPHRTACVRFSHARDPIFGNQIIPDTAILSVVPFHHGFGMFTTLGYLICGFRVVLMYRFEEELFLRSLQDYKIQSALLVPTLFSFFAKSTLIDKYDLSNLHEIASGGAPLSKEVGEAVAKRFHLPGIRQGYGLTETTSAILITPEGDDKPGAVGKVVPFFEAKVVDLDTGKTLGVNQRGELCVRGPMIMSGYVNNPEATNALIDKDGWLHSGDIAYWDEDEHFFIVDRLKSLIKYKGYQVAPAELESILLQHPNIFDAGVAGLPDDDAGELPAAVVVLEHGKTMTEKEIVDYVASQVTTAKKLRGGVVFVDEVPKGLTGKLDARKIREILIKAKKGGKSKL
A further assay has as its system Vero. Nature of the assay: viability loss in Vero cells – cell-based, plate reader, cherry-pick samples, cytotoxicity control, dose response (AID 687020). Format: functional. Conditions: Chlorocebus sabaeus.
A further assay deals with H9c2. Nature of the assay: cells. Format: functional, cell-based. As to conditions: Rattus norvegicus, H9c2, Myocardium.
In the next assay the target is Paired box protein Pax-8 (Homo sapiens, UniProt Q06710). Nature of the assay: PAX8 transcriptional activity inhibition in RMG-I – RMG-I cells, luciferase, cherry-pick, dose response (AID 687027).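 Further: luciferase reporter driven by Pax8 target thyroperoxidase promoter measured by SteadyGlo luminescence.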 The class given is functional, cell-based.
Sequence of Paired box protein Pax-8 (Q06710 whole entry): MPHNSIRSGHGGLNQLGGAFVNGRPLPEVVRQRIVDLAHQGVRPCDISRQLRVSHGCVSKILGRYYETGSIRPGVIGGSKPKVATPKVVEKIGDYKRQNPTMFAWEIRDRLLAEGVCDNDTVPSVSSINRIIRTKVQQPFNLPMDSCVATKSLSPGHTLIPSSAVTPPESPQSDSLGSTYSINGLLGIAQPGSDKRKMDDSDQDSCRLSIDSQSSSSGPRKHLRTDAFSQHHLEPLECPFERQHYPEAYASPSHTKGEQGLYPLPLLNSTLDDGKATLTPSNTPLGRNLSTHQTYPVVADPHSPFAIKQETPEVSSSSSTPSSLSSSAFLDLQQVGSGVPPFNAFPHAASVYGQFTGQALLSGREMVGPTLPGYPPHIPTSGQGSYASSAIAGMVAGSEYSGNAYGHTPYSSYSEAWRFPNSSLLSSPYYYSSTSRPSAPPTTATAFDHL
Assay [13] can be described thus: general cell-killing toxicity readout – plate reader, dry powder samples, cytotoxicity control for PAX8 inhibitor project, dose response (AID 743021). The class given is functional, cell-based.

SMILES strings stand for the structures. Calls of active or inactive are those of the source.

T2 sequence (Q79MP6 whole entry): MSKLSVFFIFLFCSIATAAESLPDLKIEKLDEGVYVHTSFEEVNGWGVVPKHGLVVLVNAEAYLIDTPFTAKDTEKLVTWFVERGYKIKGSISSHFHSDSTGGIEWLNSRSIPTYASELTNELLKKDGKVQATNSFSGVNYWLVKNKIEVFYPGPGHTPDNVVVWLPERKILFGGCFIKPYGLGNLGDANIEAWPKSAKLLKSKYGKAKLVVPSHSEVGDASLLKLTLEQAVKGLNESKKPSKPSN
Sequence of Fructose-bisphosphate aldolase (P9WQA3 whole entry): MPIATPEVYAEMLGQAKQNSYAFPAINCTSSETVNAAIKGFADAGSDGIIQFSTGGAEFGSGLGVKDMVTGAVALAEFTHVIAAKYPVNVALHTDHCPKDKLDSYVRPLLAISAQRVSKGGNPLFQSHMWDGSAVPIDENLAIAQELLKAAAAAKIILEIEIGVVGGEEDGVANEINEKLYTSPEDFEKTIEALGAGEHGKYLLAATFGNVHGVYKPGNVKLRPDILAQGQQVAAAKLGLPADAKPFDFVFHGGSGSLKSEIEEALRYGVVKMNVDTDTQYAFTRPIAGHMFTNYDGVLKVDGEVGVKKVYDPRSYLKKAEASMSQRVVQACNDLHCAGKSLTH
Sequence of Melanocortin receptor 4 (P32245 whole entry): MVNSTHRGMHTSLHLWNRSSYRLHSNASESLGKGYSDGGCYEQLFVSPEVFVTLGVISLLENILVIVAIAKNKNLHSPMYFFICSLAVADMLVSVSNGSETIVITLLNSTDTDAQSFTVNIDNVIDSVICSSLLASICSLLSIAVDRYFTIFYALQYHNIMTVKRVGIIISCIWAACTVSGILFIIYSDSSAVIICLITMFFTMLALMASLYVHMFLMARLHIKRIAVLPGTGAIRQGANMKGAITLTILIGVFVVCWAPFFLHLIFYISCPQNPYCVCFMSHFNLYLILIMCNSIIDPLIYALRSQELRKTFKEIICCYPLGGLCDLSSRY

Turning to `O=C(CCCSc1ccc(Cl)cc1)Nc1ccccc1O`, the IC50 in [1] is 24.1 µM (inactive); in [2], 0.158 µM (active); in [3] it was 24.8 µM (inactive).

For the molecule `CCS(=O)(=O)Nc1ccccc1C(N)=O`, the IC50 in [4] is 2.58 µM (active).

For the molecule `C=CCn1c(S)nnc1C1CC1`, the IC50 at Beta-lactamase [5], at Beta-lactamase [6] and at Beta-lactamase [7] was > 59.6 µM (inactive) in each case.

In the case of `O=C(O)CC/C(=C\c1cc([N+](=O)[O-])ccc1Cl)c1nc2ccccc2s1`, the IC50 on Beta-lactamase [5] is 43.1 µM (inactive); at Beta-lactamase [6], > 59.6 µM (inactive); at Beta-lactamase [7], > 59.6 µM (inactive).

On to `Cc1n[nH]c(-c2ccc(O)cc2O)c1Oc1ccccc1`, for which the values for the IC50 in assay [8] and in assay [9] were 8.31 µM (active) and 34.2 µM (active), respectively. In [10], the CC50 was 100 µM (active).

On to `CC(=O)Nc1cc(-c2ccc(C(=O)NC3CC3)cc2)cn2c(-c3cccc(C(F)(F)F)c3)cnc12`, for which, in the assay with A549, the AC50 was 26.8 µM (active). Moreover, at Melanocortin receptor 4, the EC50 is > 89.2 µM (inactive).

`CCN(CC)c1ccc(/C=N/NC(=O)c2ccoc2C)cc1`: the EC50 in [11] was 3.59 µM (active); in [12] it was 1.42 µM (active). The CC50 in [10] is 100 µM (active).

On to `COC(=O)c1ccc2nc(-c3ccc(F)cc3)c(Cc3ccccc3OC)n2c1`, for which the concentration at half-maximal activity (AC50) in the assay with Vero was 35.2 µM (active).

Regarding `CCOC(=O)CC1(C)Sc2ccccc2N1S(=O)(=O)c1ccc(C)cc1` (centres undefined), the AC50 with Vero is 28.5 µM (active).

For the molecule `CNc1cccc(-c2ccc(N3CCN(C)CC3)nc2)n1`, in [4], the IC50 is 2.18 µM (active).

For `C=C1C(C)C2C(Cc3ccccc3)NC(=O)C23OC(=O)/C=C/C(O)CCCC(C)C/C=C/C3C1O` (centres undefined), the IC50 in the assay with H9c2 was > 79 µM (inactive). The AC50 was 3.15 µM (active) on Paired box protein Pax-8 and 3.36 µM (active) in assay [13].

The term IC50 denotes the point on the concentration scale where inhibition reaches its midpoint. What is called CC50 is the concentration at which the toxic effect on the cells reaches its halfway point. For orientation: AC50 means the concentration at which the activity in the assay is half-maximal. What is called EC50 is the concentration giving half of the maximal effect.
